The values below come from patent US20130143929A1, “FUNGICIDAL IMIDAZOLES” (EI DU PONT DE NEMOURS AND COMPANY, priority 2010, published 2013).

Type in all cases: in vivo
Common to all, as to details: 100 = 100% disease control

The subject of experiment [1] is Puccinia recondite f. sp. tritici (the causal agent of wheat leaf rust). In words: Test A: wheat leaf rust, preventive spray on wheat seedlings, visual disease rating. In a few lines:
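This was a preventive test: Puccinia recondite f. sp. tritici inoculum was applied one day after compound spray to run-off. Test suspensions were made in 50/50 acetone/water with 250 ppm surfactant, at 200 ppm (800 g/ha equivalent) or 40 ppm. Visual ratings of % disease control relative to controls were made after 24 h of saturated humidity and 7 growth-chamber days, all at 20° C.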

Experiment [2] concerns Septoria tritici (the causal agent of wheat leaf blotch). The experiment can be described thus: Test B: wheat leaf blotch, preventive spray on wheat seedlings, visual disease rating. In a few lines: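 Preventive test: Septoria tritici spores applied one day after run-off spraying of seedlings (200 ppm equals 800 g/ha; some tests 40 ppm). After 48 h at 24 °C saturated atmosphere and 19 days at 20 °C, disease scored visually as % control relative to untreated plants.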

The test system of experiment [3] is Botrytis cinerea (the causal agent of tomato Botrytis). In words: Test C: tomato Botrytis, preventive spray on tomato seedlings, visual disease rating. An outline of the steps: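 Preventive test: B. cinerea spore inoculation one day after tomato seedlings were sprayed to run-off with compound suspended in 50/50 acetone–water plus 250 ppm surfactant. Plants held 48 h at 20° C in saturated air, then 3 days at 24° C; visual ratings scored 100 (full control) to 0 versus controls; some entries used 40 ppm.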

In experiment [4] the test system is Blumeria graminis f. sp. tritici (also known as Erysiphe graminis f. sp. tritici, the causal agent of wheat powdery mildew). In words: Test D: wheat powdery mildew, preventive spray on wheat seedlings, visual disease rating. An outline of the steps:
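Preventive test: seedlings sprayed to run-off and inoculated with powdery mildew spores one day later. Suspensions were made in 50/50 acetone/water with 250 ppm Trem 014 surfactant (200 ppm equals 800 g/ha). Visual ratings after 8 days at 20 °C give percent disease control versus controls.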

[5] abbreviates: no asterisk: standard test suspension concentration, 0 = no control relative to controls.
The mark [6] stands for this setting: asterisk: 40 ppm test suspension, 0 = no control.

Marks after values point to notes of the source that are not given here.

With `Cc1cc(F)ccc1C(O)c1c(Br)nc(C)n1-c1c(F)cccc1Br` (stereo not shown) [compound 406], the “Test A rating (% disease control, wheat leaf rust)” value in experiment [1] (setting [5]) was found to be 100%. In experiment [2] (setting [5]), the “Test B rating (% disease control, wheat leaf blotch)” value amounted to 100%. For the same compound, in experiment [3] (setting [5]), the “Test C rating (% disease control, tomato Botrytis)” value came to 43%. Further, the “Test D rating (% disease control, wheat powdery mildew)” value in experiment [4] (setting [5]) is reported as 56%.

In the case of `Cc1cc(F)ccc1C(O)c1c(Cl)nc(C)n1-c1c(F)cccc1Br` (stereo not shown) [compound 407], the “Test A rating (% disease control, wheat leaf rust)” value in experiment [1] (setting [5]) came out at 99%. Moreover, in experiment [2] (setting [5]), the “Test B rating (% disease control, wheat leaf blotch)” value is reported as 100%. The “Test C rating (% disease control, tomato Botrytis)” value in experiment [3] (setting [5]) is recorded as 52%. The “Test D rating (% disease control, wheat powdery mildew)” value in experiment [4] (setting [5]) is recorded as 0%.

With `Cc1cc(F)ccc1C(O)c1c(Br)nc(C)n1-c1c(F)cc(F)cc1Br` (stereo not shown) [compound 408], in experiment [1] (setting [5]), the “Test A rating (% disease control, wheat leaf rust)” value turned out to be 100%. For the same compound, in experiment [2] (setting [5]), the “Test B rating (% disease control, wheat leaf blotch)” value was found to be 100%. In experiment [3] (setting [5]), the “Test C rating (% disease control, tomato Botrytis)” value is given as 99%. For the same compound, the “Test D rating (% disease control, wheat powdery mildew)” value in experiment [4] (setting [5]) was 56%.

As to `Cc1ncc(C(O)c2ccc(F)cc2F)n1-c1c(F)cccc1Br` (stereo not shown) [compound 409], the “Test A rating (% disease control, wheat leaf rust)” value in experiment [1] (setting [5]) is listed as 99%. In addition, the “Test B rating (% disease control, wheat leaf blotch)” value in experiment [2] (setting [5]) is reported as 100%. Moreover, the “Test C rating (% disease control, tomato Botrytis)” value in experiment [3] (setting [5]) was 57%. In addition, the “Test D rating (% disease control, wheat powdery mildew)” value in experiment [4] (setting [5]) was 0%.

As for `Cc1ncc(C(O)c2ccc(F)cc2F)n1-c1c(F)cc(F)cc1Br` (stereo not shown) [compound 410], the “Test A rating (% disease control, wheat leaf rust)” value in experiment [1] (setting [5]) amounted to 100%. Further, the “Test B rating (% disease control, wheat leaf blotch)” value in experiment [2] (setting [5]) was 100%. Further, the “Test C rating (% disease control, tomato Botrytis)” value in experiment [3] (setting [5]) came out at 97%. The “Test D rating (% disease control, wheat powdery mildew)” value in experiment [4] (setting [5]) is reported as 13%.

For the compound `COc1cc(F)c(-n2c(C)nc(Cl)c2C(O)c2ccc(F)cc2F)c(F)c1` (stereo not shown) [compound 411], the “Test A rating (% disease control, wheat leaf rust)” value in experiment [1] (setting [6]) is on record as 100* %. Besides, the “Test B rating (% disease control, wheat leaf blotch)” value in experiment [2] (setting [6]) is recorded as 100* %. For the same compound, the “Test C rating (% disease control, tomato Botrytis)” value in experiment [3] (setting [6]) is 85* %. Also, the “Test D rating (% disease control, wheat powdery mildew)” value in experiment [4] (setting [6]) is listed as 50* %.

For `COc1cc(F)c(-n2c(C)nc(Br)c2C(O)c2ccc(F)cc2F)c(F)c1` (stereo not shown) [compound 412], in experiment [1] (setting [6]), the “Test A rating (% disease control, wheat leaf rust)” value was 100* %. Further, in experiment [2] (setting [6]), the “Test B rating (% disease control, wheat leaf blotch)” value is on record as 100* %. In experiment [3] (setting [6]), the “Test C rating (% disease control, tomato Botrytis)” value is listed as 0* %. The “Test D rating (% disease control, wheat powdery mildew)” value in experiment [4] (setting [6]) is 0* %.

As to `Cc1ncc(C(O)c2cccnc2F)n1-c1c(F)cc(F)cc1F` (stereo not shown) [compound 413], the “Test A rating (% disease control, wheat leaf rust)” value in experiment [1] (setting [5]) was 88%. The “Test B rating (% disease control, wheat leaf blotch)” value in experiment [2] (setting [5]) is given as 98%. Besides, the “Test C rating (% disease control, tomato Botrytis)” value in experiment [3] (setting [5]) came out at 0%. The “Test D rating (% disease control, wheat powdery mildew)” value in experiment [4] (setting [5]) was 0%.

As for `Cc1nc(Br)c(C(O)c2cccnc2F)n1-c1c(F)cc(F)cc1F` (stereo not shown) [compound 414], in experiment [1] (setting [5]), the “Test A rating (% disease control, wheat leaf rust)” value was 100%. The “Test B rating (% disease control, wheat leaf blotch)” value in experiment [2] (setting [5]) was found to be 100%. Moreover, in experiment [3] (setting [5]), the “Test C rating (% disease control, tomato Botrytis)” value turned out to be 67%. Moreover, the “Test D rating (% disease control, wheat powdery mildew)” value in experiment [4] (setting [5]) amounted to 13%.

Turning to `Cc1cc(F)ccc1C(O)c1cnc(C)n1-c1ccc(F)cc1F` (stereo not shown) [compound 415], the “Test A rating (% disease control, wheat leaf rust)” value in experiment [1] (setting [5]) was found to be 74%. The “Test B rating (% disease control, wheat leaf blotch)” value in experiment [2] (setting [5]) is reported as 18%. Also, in experiment [3] (setting [5]), the “Test C rating (% disease control, tomato Botrytis)” value was determined as 0%. The “Test D rating (% disease control, wheat powdery mildew)” value in experiment [4] (setting [5]) is recorded as 0%.
